Here are results for 22 compounds from patent US12240840B2, “Amide-substituted heterocyclic compounds for the treatment of conditions related to the modulation of IL-12, IL-23 and/or IFN-alpha” (BRISTOL-MYERS SQUIBB COMPANY, priority 2018, dated 2025).

The experiment deals with IFNα-induced pSTAT5 (pY694) in CD3 positive cells of human whole blood. Kind of experiment: IFNα-Induced STAT Phosphorylation in Human Whole Blood. The experiment is classed as cell-based. The conditions noted are these: Homo sapiens, 1 h compound incubation, 1000 U/mL recombinant human IFNα A/D for 15 min, pSTAT5 in CD3 positive population, read-out: Human WB IFNα-Induced Stat Phosph. (IC50). How it is done: IFNα-Induced STAT Phosphorylation in Human Whole Blood
After an hour long incubation with compound, human whole blood (drawn with either EDTA or ACD-A as anti-coagulant) was stimulated with 1000 U/mL recombinant human IFNα A/D (R&D Systems 11200-2) for 15 min. The stimulation was stopped by adding Fix/Lyse buffer (BD 558049). Cells were stained with a CD3 FITC antibody (BD 555916), washed, and permeabilized on ice using Perm III buffer (BD 558050). Cells were then stained with an Alexa-Fluor 647 pSTAT5 (pY694) antibody (BD 612599) for 30 min prior to analysis on the FACS Canto II. The amount of pSTAT5 expression was quantitated by median fluorescence intensity after gating on the CD3 positive population.
IFNα-Induced STAT Phosphorylation in Human Whole Blood Inhibition Data ND—no data available

For `[2H]C([2H])([2H])NC(=O)c1nnc(NC(=O)C2CC2)cc1Nc1cccc(-c2ncc(C(=O)NC[C@H]3CCCN3CC)s2)c1OC` [Example 330], the IC50 (in general, the concentration needed to halve the response being measured) came to 70 nM.
In the case of `COc1c(Nc2cc(NC(=O)C3CC3)nnc2C(N)=O)cccc1-c1noc([C@H]2C[C@@H](O)CN2S(C)(=O)=O)n1` [Example 62], the IC50 is 80 nM.
The result for `[2H]C([2H])([2H])NC(=O)c1nnc(NC(=O)C2CC2)cc1Nc1cccc(-c2ncc(C(=O)N3CC(C)(O)C3)s2)c1OC` [Example 346] reads 90 nM.
To `COc1c(Nc2cc(NC(=O)C3CC3)nnc2C(N)=O)cccc1-c1noc([C@H](C)N(C)S(C)(=O)=O)n1` [Example 51] belongs 160 nM; to `[2H]C([2H])([2H])NC(=O)c1nnc(NC(=O)C2CC2)cc1Nc1cccc(-n2cc(CNC)nn2)c1OC` [Example 5], 3300 nM; to `[2H]C([2H])([2H])NC(=O)c1nnc(NC(=O)C2CC2)cc1Nc1cccc(-c2noc(CN3CCC(O)C3)n2)c1OC` (stereo not shown) [Example 82], 70 nM.
For `[2H]C([2H])([2H])NC(=O)c1nnc(NC(=O)C2CC2)cc1Nc1cccc(-c2noc(CN3CCC(O)CC3)n2)c1OC` [Example 83], the IC50 was 110 nM.
Turning to `[2H]C([2H])([2H])NC(=O)c1nnc(NC(=O)C2CC2)cc1Nc1cccc(-c2noc([C@@H]3C[C@@H](O)CN3S(C)(=O)=O)n2)c1OC` [Example 75], the IC50 amounted to 30 nM.
Regarding `[2H]C([2H])([2H])NC(=O)c1nnc(NC(=O)C2CC2)cc1Nc1cccc(-c2nc(C)c(C(=O)NC3CCC(N(C)C)CC3)s2)c1OC` (stereo not shown) [Example 365], the IC50 came out at 320 nM.
Turning to `[2H]C([2H])([2H])NC(=O)c1nnc(NC(=O)C2CC2)cc1Nc1cccc(-c2noc(CCC(=O)NCCC3CCCN3C)n2)c1OC` (stereo not shown) [Example 26], the IC50 stood at 3900 nM.
The result for `[2H]C([2H])([2H])NC(=O)c1cnc(NC(=O)C2CC2)cc1Nc1cccc(-c2nc(CO)no2)c1OC` [Example 217] reads 180 nM; that for `[2H]C([2H])([2H])NC(=O)c1nnc(NC(=O)C2CC2)cc1Nc1cccc(-c2ncc(C(=O)NC3CCC(N(C)C)CC3)s2)c1OC` (stereo not shown) [Example 307], 30 nM.
The result for `[2H]C([2H])([2H])NC(=O)c1nnc(NC(=O)C2CC2)cc1Nc1cccc(-c2cnn(CCNC(=O)CC#N)c2)c1OC` [Example 559] reads 830 nM.
Turning to `[2H]C([2H])([2H])NC(=O)c1nnc(NC(=O)C2CC2)cc1Nc1cccc(-c2ncc(C(=O)NCCCN(CC)CC)s2)c1OC` [Example 335], the IC50 was 50 nM.
Consider `[2H]C([2H])([2H])NC(=O)c1nnc(NC(=O)C2CC2)cc1Nc1cccc(-c2noc(CN3CCN(C(=O)OC)CC3)n2)c1OC` [Example 14], for which the IC50 turned out to be 50 nM.
The result for `[2H]C([2H])([2H])NC(=O)c1nnc(NC(=O)C2CC2)cc1Nc1cccc(-c2nc(C(OCC)OCC)no2)c1OC` [Example 224] reads 880 nM; that for `[2H]C([2H])([2H])NC(=O)c1nnc(NC(=O)C2CC2)cc1Nc1cccc(-c2noc(C(=O)N3CCOCC3)n2)c1OC` [Example 16], 560 nM.
On to `[2H]C([2H])([2H])NC(=O)c1nnc(NC(=O)C2CC2)cc1Nc1cccc(-c2nc(CN3CCN(C(=O)OC(C)(C)C)CC3)no2)c1OC` [Example 135], for which the IC50 stood at 2010 nM.
Turning to `[2H]C([2H])([2H])NC(=O)c1nnc(NC(=O)C2CC2)cc1Nc1cccc(-c2cnn(CC(=O)NCC(CC)CC)n2)c1OC` [Example 428], the IC50 worked out at 2630 nM.
Turning to `[2H]C([2H])([2H])NC(=O)c1nnc(NC(=O)C2CC2)cc1Nc1cccc(-c2ncc(C(=O)N[C@H]3CN4CCC3CC4)s2)c1OC` [Example 327], the IC50 was 150 nM.
On to `COc1c(Nc2cc(NC(=O)C3CC3)nnc2C(N)=O)cccc1-c1ncc(CC(=O)N2CCOCC2)s1` [Example 244], for which the IC50 was found to be 120 nM.
For `[2H]C([2H])([2H])NC(=O)c1nnc(NC(=O)C2CC2)cc1Nc1cccc(-c2nc(CNC(=O)CN3CCOCC3)no2)c1OC` [Example 159], the IC50 was 1080 nM.
